Experimental data reported in US10047086B2, “Imidazopyridines and imidazopyrazines as LSD1 inhibitors” (Incyte Corporation, priority 2014, dated 2018).

target: LSD-1 enzyme (Homo sapiens (Human), UniProt O60341); assay: LANCE LSD1/KDM1A demethylase assay (LSD1 histone demethylase biochemical assay); conditions: 1 nM LSD-1 enzyme, 1 hour preincubation at 25° C., 0.4 μM Biotin-labeled Histone H3 peptide substrate

SMILES	IC50 [nM]
CCN1CCC[C@@H](COc2cc(-c3ccc(C#N)cc3)c(-c3ccc4c(c3)CC(=O)N4C)n3cncc23)C1 [Example 114, (R)-4-(8-((1-ethylpiperidin-3-yl)methoxy)-5-(1-methyl-2-oxoindolin-5-yl)imidazo[1,5-a]pyridin-6-yl)benzonitrile]	≤ 50
CN1CCC[C@@H](COc2nc(-c3ccc(C#N)c(F)c3)c(-c3cnc4c(cnn4C)c3)n3cncc23)C1 [Example 36, 2-fluoro-4-[8-{[(3R)-1-methylpiperidin-3-yl]methoxy}-5-(1-methyl-1H-1-pyrazolo[3,4-b]pyridin-5-yl)imidazo[1,5-a]pyrazin-6-yl]benzonitrile]	≤ 50
CN1CCC[C@@H](COc2cc(-c3ccc(C#N)cc3)c(-c3ccc(N(C)C)nc3)n3cncc23)C1 [Example 80, 4-(5-[6-(dimethylamino)pyridin-3-yl]-8-{[(3R)-1-methylpiperidin-3-yl]methoxy}imidazo[1,5-a]pyridin-6-yl)benzonitrile]	≤ 50
Cc1cc(-c2c(-c3ccc(C#N)cc3)nc(OC[C@@H]3CCCN(C)C3)c3cncn23)cc(F)c1CO [Example 44, 4-(5-[3-fluoro-4-(hydroxymethyl)-5-methylphenyl]-8-{[(3R)-1-methylpiperidin-3-yl]methoxy}imidazo[1,5-a]pyrazin-6-yl)benzonitrile]	≤ 50
CN1C(=O)COc2cc(-c3c(-c4ccc(C#N)cc4)nc(N4CCC(N(C)C)CC4)c4cncn34)cnc21 [Example 105, 4-[8-[4-(dimethylamino)piperidin-1-yl]-5-(4-methyl-3-oxo-3,4-dihydro-2H-pyrido[3,2-b][1,4]oxazin-7-yl)imidazo[1,5-a]pyrazin-6-yl]benzonitrile]	≤ 50
CN(C)C1CCN(c2nc(-c3ccc(C#N)cc3)c(-c3cnc4c(c3)ncn4C)n3cncc23)CC1 [Example 107, 4-[8-[4-(dimethylamino)piperidin-1-yl]-5-(3-methyl-3H-imidazo[4,5-b]pyridin-6-yl)imidazo[1,5-a]pyrazin-6-yl]benzonitrile]	≤ 50
Cc1ccc(-c2c(-c3ccc(C#N)cc3F)cc(OC[C@@H]3CCNC3)c3cncn23)cc1 [Example 5, 3-fluoro-4-{5-(4-methylphenyl)-8-[(3R)-pyrrolidin-3-ylmethoxy]imidazo[1,5-a]pyridin-6-yl}benzonitrile]	≤ 50
COC(=O)N(C)c1ccc(-c2c(-c3ccc(C#N)cc3)nc(N3CCC(N(C)C)CC3)c3cncn23)cc1 [Example 95, methyl (4-(6-(4-cyanophenyl)-8-(4-(dimethylamino)piperidin-1-yl)imidazo[1,5-a]pyrazin-5-yl)phenyl)(methyl)carbamate]	≤ 50
